ChEMBL document CHEMBL4706713, “Speeding drug discovery targeting RNAs: An iterative "RNA selection-compounds screening cycle" for exploring RNA-small molecule pairs” (Bioorg Med Chem, 2021)
Values belong to the molecule of their own block, whether it stands above or below them. Calls of active or inactive are those of the source. The rule behind the calls is not given here.

What was measured:
[1] = Binding affinity to R1-RNA hairpin loop (unknown origin) by SPR analysis
[2] = Binding affinity to R1-RNA (unknown origin) by SPR analysis
[3] = Binding affinity to 5'-Biotinylated pre-let-7f-2 RNA (unknown origin) by SPR analysis
[4] = Binding affinity to R1-RNA internal loop mutant2 (unknown origin) by SPR analysis
[5] = Binding affinity to R1-RNA internal loop mutant3 (unknown origin) by SPR analysis
[6] = Binding affinity to 5'-Biotinylated pre-let-7f-2-loop-mt RNA (unknown origin) at 25 uM by SPR analysis
[7] = Binding affinity to R1-RNA internal loop mutant4 (unknown origin) by SPR analysis
[8] = Binding affinity to R1-RNA internal loop mutant1 (unknown origin) by SPR analysis
[9] = Binding affinity to R1-RNA internal loop (unknown origin) by SPR analysis
[10] = Binding affinity to 5'-Biotinylated pre-let-7f-2-loop-mt RNA (unknown origin) by SPR analysis
[11] = Binding affinity to R2-RNA (unknown origin) by SPR analysis

Activity [1]: inactive
Activity [2]: Active
Activity [3]: inactive
Activity [4]: inactive
Activity [5]: inactive
Activity [6]: Active
Activity [7]: inactive
Activity [8]: inactive
Activity [9]: Active
Activity [10]: Active
Activity [11]: inactive
SMILES: Cn1nc(NC(=O)Nc2cnccc2C(=O)N[C@@H](CO)CCCCN)c2cnc(N3CC(F)(F)C(F)(F)C3)nc21

Activity [6]: Active
SMILES: CC(C)NC(=O)c1ccncc1NC(=O)Nc1nn(C)c2nc(N3CCC(CN(C)C)C3)ncc12 (configuration not stated)

Activity [10]: inactive
SMILES: COCC1CCN(c2ncc3c(NC(=O)Nc4cnccc4C(=O)NC(C)C)nn(C)c3n2)C1 (configuration not stated)

Activity [6]: Active
Kd [10]: 17.8 µM
SMILES: CC(C)NC(=O)c1ccncc1NC(=O)Nc1nn(C)c2nc(Cl)ncc12

Activity [10]: inactive
SMILES: CC(C)NC(=O)c1ccncc1NC(=O)Nc1nn(C)c2nc(N3CCCC3)ncc12

Activity [6]: Active
SMILES: CC(C)NC(=O)c1ccncc1NC(=O)Nc1nn(C)c2nc(N3CCC(N(C)C)C3)ncc12 (configuration not stated)
